This passage reports T/C results from PubChem BioAssay AID330 (DTP/NCI, 2004).

Values joined by “and” are separate entries in the source; they are usually repeats but may differ in a detail not shown here. Equal values may be shown once. Toxic doses and inconclusive results are not listed.

In the experiment the test system is P388 leukemia ip, CD2F1 mice, survival T/C. The experiment is described as follows: NCI In Vivo Anticancer Drug Screen. Data for tumor model P388 Leukemia (intraperitoneal) in CD2F1 (CDF1) mice. Conditions: endpoint: median survival time, higher = longer survival. In short, it runs like this: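 Mice carrying the transplanted tumor received test compound or vehicle. Survival was recorded in each group, and the value is the treated-group measurement divided by that of the vehicle-treated control group.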

Setting [1] is: dose: 1.56 mg/kg/injection, schedule: Q01DX009 (ip), vehicle: saline with Tween-80.
Where [2] appears, read: dose: 50.0 mg/kg/injection, schedule: Q01DX009 (ip), vehicle: saline with Tween-80.
The mark [3] stands for this setting: dose: 200.0 mg/kg/injection, schedule: Q01DX009 (ip), vehicle: saline with Tween-80.
[4] abbreviates: dose: 50.0 mg/kg/injection, schedule: Q01DX005 (ip), vehicle: Klucel (hydroxypropylcellulose) (HPC).
[5] abbreviates: dose: 100.0 mg/kg/injection, schedule: Q01DX009 (ip), vehicle: saline with Tween-80.
Setting [6] is: dose: 100.0 mg/kg/injection, schedule: Q01DX005 (ip), vehicle: Klucel (hydroxypropylcellulose) (HPC).
Setting [7] is: dose: 200.0 mg/kg/injection, schedule: Q01DX005 (ip), vehicle: Klucel (hydroxypropylcellulose) (HPC).

For the compound `NC(CSC(c1ccccc1)(c1ccccc1)c1ccccc1)C(=O)O` (stereo unspecified), the T/C by setting is: under setting [1], 108 % of control; (dose: 3.12 mg/kg/injection, schedule: Q01DX009 (ip), vehicle: Klucel (hydroxypropylcellulose) (HPC)) 86 % of control; (dose: 6.25 mg/kg/injection, schedule: Q01DX009 (ip), vehicle: Klucel (hydroxypropylcellulose) (HPC)) 121 % of control and 90 % of control; (dose: 6.25 mg/kg/injection, schedule: Q01DX009 (ip), vehicle: saline with Tween-80) 119 % of control; (dose: 6.25 mg/kg/injection, schedule: Q01DX009 (ip), vehicle: water) 110 % of control and 118 % of control; (dose: 12.5 mg/kg/injection, schedule: Q01DX009 (ip), vehicle: Klucel (hydroxypropylcellulose) (HPC)) 92 % of control. The T/C is, setting by setting: (dose: 12.5 mg/kg/injection, schedule: Q01DX009 (ip), vehicle: water) 118 % of control; (dose: 20.0 mg/kg/injection, schedule: Q01DX001 (ip), vehicle: water) 104 % of control; (dose: 25.0 mg/kg/injection, schedule: Q01DX009 (ip), vehicle: Klucel (hydroxypropylcellulose) (HPC)) 163 % of control; (dose: 25.0 mg/kg/injection, schedule: Q01DX009 (ip), vehicle: water) 168 % of control; (dose: 25.0 mg/kg/injection, schedule: Q01DX009 (oral), vehicle: saline with Tween-80) 123 % of control; (dose: 40.0 mg/kg/injection, schedule: Q01DX001 (ip), vehicle: water) 111 % of control. Also, the T/C is 168 % of control and 186 % of control (dose: 40.0 mg/kg/injection, schedule: Q01DX009 (ip), vehicle: water); 192 % of control (dose: 50.0 mg/kg/injection, schedule: Q01DX009 (ip), vehicle: Klucel (hydroxypropylcellulose) (HPC)); 180 % of control [middle of 5 runs] under setting [2]; 159 % of control and 163 % of control and 183 % of control (dose: 50.0 mg/kg/injection, schedule: Q01DX009 (ip), vehicle: water); 119 % of control (dose: 50.0 mg/kg/injection, schedule: Q01DX009 (oral), vehicle: saline with Tween-80); 225 % of control (dose: 66.0 mg/kg/injection, schedule: Q04DX003 (ip), vehicle: Klucel (hydroxypropylcellulose) (HPC)). Besides, the T/C by setting is: (dose: 80.0 mg/kg/injection, schedule: Q01DX001 (ip), vehicle: water) 111 % of control; (dose: 100.0 mg/kg/injection, schedule: Q01DX009 (ip), vehicle: Klucel (hydroxypropylcellulose) (HPC)) 100 % of control; (dose: 100.0 mg/kg/injection, schedule: Q01DX009 (oral), vehicle: saline with Tween-80) 153 % of control; (dose: 100.0 mg/kg/injection, schedule: Q04DX003 (ip), vehicle: Klucel (hydroxypropylcellulose) (HPC)) 175 % of control; under setting [3], 167 % of control and 175 % of control.
Consider `NC(=O)NC(=O)/C=C/C(=O)OCCCl`, for which the T/C is 102 % of control (dose: 6.25 mg/kg/injection, schedule: Q01DX005 (ip), vehicle: Klucel (hydroxypropylcellulose) (HPC)); 89 % of control (dose: 12.5 mg/kg/injection, schedule: Q01DX005 (ip), vehicle: Klucel (hydroxypropylcellulose) (HPC)); 94 % of control (dose: 25.0 mg/kg/injection, schedule: Q01DX005 (ip), vehicle: Klucel (hydroxypropylcellulose) (HPC)); 101 % of control under setting [4].
In the case of `O=[N+]([O-])c1ccc(Sc2ccccn2)nc1Sc1ccccn1`, the T/C is, setting by setting: (dose: 0.79 mg/kg/injection, schedule: Q01DX009 (ip), vehicle: saline with Tween-80) 100 % of control; under setting [1], 104 % of control; (dose: 3.12 mg/kg/injection, schedule: Q01DX009 (ip), vehicle: saline with Tween-80) 100 % of control; under setting [3], 92 % of control.
With `CC1C2Cc3ccc(O)cc3C1(C)CCN2Cc1ccoc1` (stereo unspecified), the T/C runs as follows: (dose: 50.0 mg/kg/injection, schedule: Q01DX009 (ip), vehicle: saline) 96 % of control; (dose: 100.0 mg/kg/injection, schedule: Q01DX009 (ip), vehicle: saline) 99 % of control.
Regarding `COc1ccccc1OCC1CCC(=O)O1` (stereo unspecified), the T/C was 95 % of control (dose: 100.0 mg/kg/injection, schedule: Q04DX002 (ip), vehicle: Klucel (hydroxypropylcellulose) (HPC)); 103 % of control (dose: 200.0 mg/kg/injection, schedule: Q04DX002 (ip), vehicle: Klucel (hydroxypropylcellulose) (HPC)); 101 % of control (dose: 400.0 mg/kg/injection, schedule: Q04DX002 (ip), vehicle: Klucel (hydroxypropylcellulose) (HPC)).
Regarding `C[Si](C)(CCCOCC1CO1)O[Si](C)(C)CCCOCC1CO1` (stereo unspecified), the T/C reads like this: under setting [5], 100 % of control; under setting [3], 101 % of control; (dose: 400.0 mg/kg/injection, schedule: Q01DX009 (ip), vehicle: saline with Tween-80) 114 % of control.
With `CC(=O)OCC1OC(n2cccnc2=O)C(OC(C)=O)C1OC(C)=O` (stereo unspecified), the T/C reads like this: (dose: 50.0 mg/kg/injection, schedule: Q01DX005 (ip), vehicle: saline) 107 % of control; (dose: 100.0 mg/kg/injection, schedule: Q01DX005 (ip), vehicle: saline) 107 % of control; (dose: 200.0 mg/kg/injection, schedule: Q01DX005 (ip), vehicle: saline) 107 % of control; (dose: 400.0 mg/kg/injection, schedule: Q01DX005 (ip), vehicle: saline) 102 % of control.
For `CO[C@@H]1C2=CC=CC=C[C@H]2n2c(=O)n(C)c(=O)n21`, the T/C by setting is: under setting [4], 100 % of control; (dose: 75.0 mg/kg/injection, schedule: Q01DX005 (ip), vehicle: other) 109 % of control; under setting [6], 98 % of control; (dose: 150.0 mg/kg/injection, schedule: Q01DX005 (ip), vehicle: other) 115 % of control; under setting [7], 102 % of control; (dose: 300.0 mg/kg/injection, schedule: Q01DX005 (ip), vehicle: other) 111 % of control.
For `CC(C)COCC1COC2(OCC(C)(C)C2OC(=O)Nc2ccccc2)O1` (stereo unspecified), the T/C (dose: 60.0 mg/kg/injection, schedule: Q01DX005 (ip), vehicle: Klucel (hydroxypropylcellulose) (HPC)) was 95 % of control; the T/C (dose: 120.0 mg/kg/injection, schedule: Q01DX005 (ip), vehicle: Klucel (hydroxypropylcellulose) (HPC)) is 94 % of control; the T/C (dose: 240.0 mg/kg/injection, schedule: Q01DX005 (ip), vehicle: Klucel (hydroxypropylcellulose) (HPC)) is 91 % of control.
As to `Cn1c(=O)c2nc(-c3ccc(Cl)c(Cl)c3)c(-c3ccc(Cl)c(Cl)c3)nc2n(C)c1=O`, the T/C is 100 % of control (dose: 3.13 mg/kg/injection, schedule: Q01DX001 (ip), vehicle: saline with Tween-80); 104 % of control (dose: 6.25 mg/kg/injection, schedule: Q01DX001 (ip), vehicle: saline with Tween-80); 95 % of control (dose: 12.5 mg/kg/injection, schedule: Q01DX001 (ip), vehicle: saline with Tween-80); 96 % of control (dose: 25.0 mg/kg/injection, schedule: Q01DX001 (ip), vehicle: saline with Tween-80); 93 % of control (dose: 50.0 mg/kg/injection, schedule: Q01DX001 (ip), vehicle: saline with Tween-80); 91 % of control (dose: 200.0 mg/kg/injection, schedule: Q01DX001 (ip), vehicle: saline with Tween-80).
Take `O=C1c2ccccc2C(=O)c2c1cc1c(c2[N+](=O)[O-])OCO1`: the T/C runs as follows: (dose: 30.0 mg/kg/injection, schedule: Q01DX005 (ip), vehicle: saline with Tween-80) 99 % of control and 107 % of control; (dose: 60.0 mg/kg/injection, schedule: Q01DX005 (ip), vehicle: saline with Tween-80) 99 % of control and 112 % of control and 113 % of control; (dose: 120.0 mg/kg/injection, schedule: Q01DX005 (ip), vehicle: saline with Tween-80) 99 % of control and 118 % of control and 120 % of control; (dose: 240.0 mg/kg/injection, schedule: Q01DX005 (ip), vehicle: saline with Tween-80) 118 % of control and 96 % of control.
For the compound `O=C(C[N+]12CN3CN(CN(C3)C1)C2)c1ccc2c(c1)CCCC2`, the T/C was 100 % of control under setting [4], 103 % of control under setting [6] and 106 % of control under setting [7].
`COc1cc(CN2CCN(CCO)CC2)c(O)c(CN2CCN(CCO)CC2)c1`: the T/C is, setting by setting: (dose: 60.0 mg/kg/injection, schedule: Q01DX005 (ip), vehicle: saline) 108 % of control; (dose: 120.0 mg/kg/injection, schedule: Q01DX005 (ip), vehicle: saline) 108 % of control; (dose: 240.0 mg/kg/injection, schedule: Q01DX005 (ip), vehicle: saline) 102 % of control.
For the compound `CC(CN=C(CC(=O)c1ccccc1)c1ccccc1)N=C(CC(=O)c1ccccc1)c1ccccc1` (stereo unspecified), the T/C by setting is: under setting [2], 104 % of control; under setting [5], 103 % of control; under setting [3], 97 % of control.
